Holding throughout (type): cell-based
The target in assay [1] is T1, STAT3 (Homo sapiens, UniProt P40763).
T1 construct: plasmid pSTAT3-TA-luc), which contains a stably operating STAT3 promoter; endogenous in cells
Nature of the assay: STAT3 reporter gene assay (luciferase), LNCaP stable cell line (pSTAT3-TA-luc), IL-6 stimulation. The essentials: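 Cytotoxicity was run on a duplicate plate with CellTiter-Glo, while the other plate gave luciferase read-outs from lysed LNCaP pSTAT3-TA-luc reporter cells. Cells were treated with graded compound concentrations plus IL-6 (10 ng/mL final) for 24–48 h in 3% DCC-FBS medium. Unstimulated and stimulated wells served as negative and positive controls.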
(In general: Reporter assays use an easily measured gene product as a stand-in for the process of interest.)

Assay [2] relates to AGS. The assay can be described thus: Cell growth inhibition assay, stomach cancer cell line AGS. To be noted: Homo sapiens; AGS stomach cancer cell line, 3,000 cells/well.
For assay [3], the system named is MDA-MB-231. Nature of the assay: Cell growth inhibition assay, breast cancer cell line MDA-MB-231. To be noted: Homo sapiens; MDA-MB-231 breast cancer cell line, 5,000 cells/well.
The subject of assay [4] is LNCaP. Nature of the assay: Cell growth inhibition assay, prostate cancer cell line LNCaP (medium with 10 ng/mL IL-6). To be noted: Homo sapiens, medium supplemented with 10 ng/mL of IL-6, 10,000 cells/well.

Bounds are passed on as bounds.

T1 sequence (P40763 whole entry): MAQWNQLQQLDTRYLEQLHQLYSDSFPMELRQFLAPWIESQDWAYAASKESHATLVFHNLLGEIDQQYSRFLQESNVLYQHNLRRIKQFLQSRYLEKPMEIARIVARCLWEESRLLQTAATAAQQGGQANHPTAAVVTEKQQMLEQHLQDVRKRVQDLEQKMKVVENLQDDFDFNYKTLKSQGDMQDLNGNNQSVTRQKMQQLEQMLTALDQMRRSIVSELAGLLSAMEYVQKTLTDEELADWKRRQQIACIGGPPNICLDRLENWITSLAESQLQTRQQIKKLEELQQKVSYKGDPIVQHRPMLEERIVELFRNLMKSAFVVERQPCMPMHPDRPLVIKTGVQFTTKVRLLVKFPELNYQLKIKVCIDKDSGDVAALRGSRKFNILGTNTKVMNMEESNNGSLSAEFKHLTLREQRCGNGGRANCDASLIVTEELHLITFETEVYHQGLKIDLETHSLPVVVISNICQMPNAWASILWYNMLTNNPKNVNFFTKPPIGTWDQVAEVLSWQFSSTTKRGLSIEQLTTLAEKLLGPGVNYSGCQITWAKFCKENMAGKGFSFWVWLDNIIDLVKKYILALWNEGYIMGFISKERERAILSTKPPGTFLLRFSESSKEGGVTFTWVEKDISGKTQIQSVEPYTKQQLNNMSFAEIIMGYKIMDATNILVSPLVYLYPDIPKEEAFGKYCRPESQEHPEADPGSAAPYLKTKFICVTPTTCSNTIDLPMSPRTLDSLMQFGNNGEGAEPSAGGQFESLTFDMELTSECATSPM

With `CS(=O)(=O)Nc1ccc2cc(C(=O)Nc3cccc(-c4ccccc4C(F)(F)F)c3)[nH]c2c1` [Example 260, 6-(methylsulfonamido)-N-(2′-(trifluoromethyl)-[1,1′-biphenyl]-3-yl)-1H-indole-2-carboxamide], the IC50 – broadly, the concentration that inhibits the measured activity by half – in assay [1] came out at 0.71 µM; in assay [2] it was 2.7 µM; in assay [3] it was 0.92 µM; in assay [4] it was 4.1 µM.

As for `COc1cc(C(F)(F)F)c(-c2cccc(NC(=O)c3cc4ccc(NS(C)(=O)=O)cc4[nH]3)c2)cc1C(N)=O` [Example 377, N-(5′-carbamoyl-4′-methoxy-2′-(trifluoromethyl)-[1,1′-biphenyl]-3-yl)-6-(methylsulfonamido)-1H-indole-2-carboxamide], the IC50 in assay [1] was greater than 10 µM; in assay [2] it was 15.2 µM; in assay [4] it was greater than 10 µM.

As to `CS(=O)(=O)Nc1ccc2cc(C(=O)Nc3cccc(-c4cc(C(N)=O)c(O)cc4C(F)(F)F)c3)[nH]c2c1` [Example 378, N-(5′-carbamoyl-4′-hydroxy-2′-(trifluoromethyl)-[1,1′-biphenyl]-3-yl)-6-(methylsulfonamido)-1H-indole-2-carboxamide], the IC50 was greater than 10 µM in assay [1], 39.9 µM in assay [2] and greater than 10 µM in assay [4].

On to `CS(=O)(=O)Nc1ccc2cc(C(=O)Nc3cccc(-c4cc(C(N)=O)ccc4C(F)(F)F)c3)[nH]c2c1` [Example 379, N-(5′-carbamoyl-2′-(trifluoromethyl)-[1,1′-biphenyl]-3-yl)-6-(methylsulfonamido)-1H-indole-2-carboxamide], for which the IC50 in assay [1] was greater than 10 µM; in assay [2], 30.1 µM; in assay [4] it was greater than 10 µM.

As to `CS(=O)(=O)Nc1ccc2cc(C(=O)Nc3cccc(-c4cc(C(N)=O)ccc4Cl)c3)[nH]c2c1` [Example 380, N-(5′-carbamoyl-2′-chloro-[1,1′-biphenyl]-3-yl)-6-(methylsulfonamido)-1H-indole-2-carboxamide], the IC50 in assay [1] was greater than 10 µM; in assay [2] it was 42.6 µM; in assay [4], greater than 10 µM.

As for `CS(=O)(=O)Nc1ccc2cc(C(=O)Nc3cc(-c4cc(C(N)=O)ccc4Cl)ccn3)[nH]c2c1` [Example 381, N-(4-(5-carbamoyl-2-chlorophenyl)pyridin-2-yl)-6-(methylsulfonamido)-1H-indole-2-carboxamide], the IC50 in assay [1] was greater than 10 µM; in assay [2], greater than 50 µM; in assay [4], greater than 10 µM.

With `CS(=O)(=O)Nc1ccc2cc(C(=O)Nc3cccc(-c4ccc(N)cc4C(F)(F)F)c3)[nH]c2c1` [Example 385, N-(4′-amino-2′-(trifluoromethyl)-[1,1′-biphenyl]-3-yl)-6-(methylsulfonamido)-1H-indole-2-carboxamide], the IC50 was 4.3 µM in assay [1], 26.3 µM in assay [2] and greater than 10 µM in assay [4].

Regarding `CNc1ccc(-c2cccc(NC(=O)c3cc4ccc(NS(C)(=O)=O)cc4[nH]3)c2)c(C(F)(F)F)c1` [Example 386, N-(4′-(methylamino)-2′-(trifluoromethyl)-[1,1′-biphenyl]-3-yl)-6-(methylsulfonamido)-1H-indole-2-carboxamide], the values for the IC50 in assay [1], in assay [2] and in assay [4] were 3.4 µM, 7.6 µM and 8 µM, respectively.

For `CS(=O)(=O)Nc1ccc2cc(C(=O)Nc3cccc(C(F)(F)c4ccncc4)c3)[nH]c2c1` [Example 388, N-(3-(difluoro(pyridin-4-yl)methyl)phenyl)-6-(methylsulfonamido)-1H-indole-2-carboxamide], the IC50 in assay [1] was found to be 3.8 µM; in assay [2], 9.8 µM; in assay [4], 8.2 µM.

With `CS(=O)(=O)Nc1ccc2cc(C(=O)Nc3cccc(C(F)(F)c4ccccn4)c3)[nH]c2c1` [Example 389, N-(3-(difluoro(pyridin-2-yl)methyl)phenyl)-6-(methylsulfonamido)-1H-indole-2-carboxamide], the results for the IC50 in assay [1], in assay [2] and in assay [4] were 5.8 µM, 20.3 µM and 9.1 µM, respectively.

Regarding `CC(C)COc1cc(NC(=O)c2cc3ccc(NS(C)(=O)=O)cc3[nH]2)cc(C(F)(F)c2cccc(C#N)c2)c1` [Example 392, N-(3-((3-cyanophenyl)difluoromethyl)-5-isobutoxyphenyl)-6-(methylsulfonamido)-1H-indole-2-carboxamide], the IC50 came to 1.8 µM in assay [1], 9 µM in assay [2] and 8.3 µM in assay [4].

As to `COc1ccc(S(=O)(=O)c2cccc(NC(=O)c3cc4ccc(NS(C)(=O)=O)cc4[nH]3)c2)cc1` [Example 394, N-(3-((4-methoxyphenyl)sulfonyl)phenyl)-6-(methylsulfonamido)-1H-indole-2-carboxamide], the IC50 in assay [1] was 3.3 µM; in assay [2], 20 µM; in assay [4] it was greater than 10 µM.

Turning to `CS(=O)(=O)Nc1ccc2cc(C(=O)Nc3cccc(S(=O)(=O)c4cccc(C#N)c4)c3)[nH]c2c1` [Example 402, N-(3-((3-cyanophenyl)sulfonyl)phenyl)-6-(methylsulfonamido)-1H-indole-2-carboxamide], the IC50 is 6.3 µM in assay [1], 22.1 µM in assay [2] and greater than 10 µM in assay [4].

Take `CS(=O)(=O)Nc1ccc2cc(C(=O)Nc3cccc(S(=O)(=O)c4ccccn4)c3)[nH]c2c1` [Example 403, 6-(methylsulfonamido)-N-(3-(pyridin-2-ylsulfonyl)phenyl)-1H-indole-2-carboxamide]: the IC50 in assay [1] was 8.2 µM; in assay [2], 34.4 µM; in assay [4], greater than 10 µM.

Turning to `CS(=O)(=O)Nc1ccc2cc(C(=O)Nc3cccc(S(=O)(=O)c4cccnc4)c3)[nH]c2c1` [Example 404, 6-(methylsulfonamido)-N-(3-(pyridin-3-ylsulfonyl)phenyl)-1H-indole-2-carboxamide], the results for the IC50 in assay [1], in assay [2] and in assay [4] were greater than 10 µM, 30.3 µM and greater than 10 µM, respectively.

Take `CS(=O)(=O)Nc1ccc2cc(C(=O)Nc3cccc(S(=O)(=O)c4cccc(Cl)c4)c3)[nH]c2c1` [Example 405, N-(3-((3-chlorophenyl)sulfonyl)phenyl)-6-(methylsulfonamido)-1H-indole-2-carboxamide]: the values for the half-inhibitory concentration (IC50) in assay [1], in assay [2] and in assay [4] were 2.4 µM, 14.6 µM and 8.6 µM, respectively.

For the compound `CS(=O)(=O)Nc1ccc2cc(C(=O)Nc3cccc(S(=O)(=O)c4cccc(C#N)n4)c3)[nH]c2c1` [Example 406, N-(3-((6-cyanopyridin-2-yl)sulfonyl)phenyl)-6-(methylsulfonamido)-1H-indole-2-carboxamide], the IC50 in assay [1] is greater than 10 µM; in assay [2], 17.6 µM; in assay [4], greater than 10 µM.

On to `COc1cncc(S(=O)(=O)c2cccc(NC(=O)c3cc4ccc(NS(C)(=O)=O)cc4[nH]3)c2)c1` [Example 407, N-(3-((5-methoxypyridin-3-yl)sulfonyl)phenyl)-6-(methylsulfonamido)-1H-indole-2-carboxamide], for which the IC50 in assay [1] is 5.7 µM; in assay [2], 45.5 µM; in assay [4], greater than 10 µM.

Take `COc1cccc(S(=O)(=O)c2cccc(NC(=O)c3cc4ccc(NS(C)(=O)=O)cc4[nH]3)c2)n1` [Example 408, N-(3-((6-methoxypyridin-2-yl)sulfonyl)phenyl)-6-(methylsulfonamido)-1H-indole-2-carboxamide]: the IC50 in assay [1] was 2.4 µM; in assay [2], 24.2 µM; in assay [4] it was greater than 10 µM.

`CS(=O)(=O)Nc1ccc2cc(C(=O)Nc3cccc(S(=O)(=O)c4ccc5sccc5c4)c3)[nH]c2c1` [Example 409, N-(3-(benzo[b]thiophen-5-ylsulfonyl)phenyl)-6-(methylsulfonamido)-1H-indole-2-carboxamide]: the IC50 in assay [1] was 2.9 µM; in assay [2], 17.3 µM; in assay [4] it was greater than 10 µM.

Consider `Cc1nc2ccc(S(=O)(=O)c3cccc(NC(=O)c4cc5ccc(NS(C)(=O)=O)cc5[nH]4)c3)cc2s1` [Example 410, N-(3-((2-methylbenzo[d]thiazol-6-yl)sulfonyl)phenyl)-6-(methylsulfonamido)-1H-indole-2-carboxamide], for which the IC50 was 3.1 µM in assay [1], 31.3 µM in assay [2] and greater than 10 µM in assay [4].

As for `COc1cc(C#N)cc(S(=O)(=O)c2cccc(NC(=O)c3cc4ccc(NS(C)(=O)=O)cc4[nH]3)c2)c1` [Example 411, N-(3-((3-cyano-5-methoxyphenyl)sulfonyl)phenyl)-6-(methylsulfonamido)-1H-indole-2-carboxamide], the IC50 in assay [1] is 3.6 µM; in assay [2], 35.2 µM; in assay [4], greater than 10 µM.

For the compound `CS(=O)(=O)Nc1ccc2cc(C(=O)Nc3cccc(S(=O)(=O)c4cccc(CC#N)c4)c3)[nH]c2c1` [Example 412, N-(3-((3-(cyanomethyl)phenyl)sulfonyl)phenyl)-6-(methylsulfonamido)-1H-indole-2-carboxamide], the results for the IC50 in assay [1], in assay [2] and in assay [4] were 3.4 µM, 22 µM and greater than 10 µM, respectively.

Take `CS(=O)(=O)Nc1ccc2cc(C(=O)Nc3cccc(S(=O)(=O)c4ccc5c(=O)ccoc5c4)c3)[nH]c2c1` [Example 413, 6-(methylsulfonamido)-N-(3-((4-oxo-4H-chromen-7-yl)sulfonyl)phenyl)-1H-indole-2-carboxamide]: the results for the IC50 in assay [1], in assay [2] and in assay [4] were greater than 10 µM, greater than 50 µM and greater than 10 µM, respectively.

`CS(=O)(=O)Nc1ccc2cc(C(=O)Nc3cccc(S(=O)(=O)c4cccc(Br)c4)c3)[nH]c2c1` [Example 414, N-(3-((3-bromophenyl)sulfonyl)phenyl)-6-(methylsulfonamido)-1H-indole-2-carboxamide]: the IC50 in assay [1] stood at 1.7 µM; in assay [2] it was 14.4 µM; in assay [4], 9.6 µM.

(Values after US10562912B2 (C&C Research Laboratories, priority 2013, dated 2020).)
